Experimental data: patent US20170348375A1, “DISLODGEMENT AND RELEASE OF HSC FROM THE BONE MARROW STEM CELL NICHE USING ALPHA9 INTEGRIN ANTAGONISTS” (COMMONWEALTH SCIENTIFIC AND INDUSTRIAL RESEARCH ORGANISATION, priority 2014, published 2017)
Read-outs that look alike come from different tables or passages of the source.

Tests used:
[1] = system: control LN18 cells (LN18 SiA4); assay: Saturation binding to control LN18 cells (no integrins); design: species or system human; details: 1 mM Ca2+/Mg2+
Method: (§1) Stable LN18 cells ((ATCC number: CRL-2610) over-expressing integrin α4β1 (LN18 α4β1) or α9β1 (LN18 α9β1)) were generated by retroviral transduction using the pMSCV-hITGA4-IRES-hITGB1 and pMSCV-hITGA9-IRES-hITGB1 vectors as previously described in J Grassinger, et al Blood, 2009, 114, 49-59 and were maintained in DMEM supplemented with 2 mM […] in 10% FBS. Transduced cells were selected by two rounds of FACS using 2.5 μg ml^−1 PE-Cy5-conjugated mouse-anti-human α4 antibody (BD Bioscience) or 20 μg ml^−1 of mouse-anti-human α9β1 antibody (Millipore) in PBS-2% FBS, followed by 0.5 μg ml^−1 of PE-conjugated goat-anti-mouse IgG (BD Bio-science). Silencing of α4 expression in LN18 and LN18 α9β1 cells was performed as described above using pSM2c-shITGA4 (Open Biosystems). α4-silenced LN18 cells (control cell line; LN18 SiA4) and LN18 α9β1 (LN18 α9β1SiA4) were negatively selected for α4 expression using FACS.
(§2) The cells were incubated at 37° C. for 60 min, washed once with TBS-2% FBS, dry pelleted and resuspended in the relevant binding buffer for flow cytometric analysis. Mean channel fluorescence was plotted against concentration and fitted to a one-site saturation ligand binding curve using GraphPad Prism 6. The dissociation constant, Kd was determined from the curves.

α9β1 integrin = target: T1, α9β1 integrin (Homo sapiens, UniProt P05556+Q13797); assay: On-rate and off-rate kinetics of R-BC154 binding to α9β1 LN18 cells; details: for kobs: 50 nM, 37° C., fast phase; for kon: (kobs − koff)/50 nM
T1 construct: expressed in transfected cells; host or cells: human glioblastoma LN18 (ATCC CRL-2610), retrovirally transduced; α4 silenced with pSM2c-shITGA4
Method: (§3) Mean channel fluorescence was plotted against time and the data was fitted to either a one-phase or two-phase exponential decay function using GraphPad Prism 6. The off-rate, koff was extrapolated from the curves.
(§4) Eppendorf vials containing α4β1 or α9β1 LN18 cells (0.5×10^6 cells) in 50 μl TBS-2% FBS containing either 1 mM CaCl2—MgCl2 or 1 mM MnCl2 were pre-activated in a heating block for 20 min at 37° C. […] The cells were washed once TBS-2% FBS (with relevant cations), pelleted by centrifugation and resuspended (200 μl) in the relevant binding buffer for flow cytometric analysis. Mean channel fluorescence was plotted against time and the data was fitted to either a one-phase or two phase association function using GraphPad Prism 6. The observed on-rate, kobs was extrapolated from the curves and kon was calculated using […]

[2] = system: human cord blood mononuclear cells (MNC); assay: In vitro R-BC154 binding to human cord blood mononuclear cells; assay type: cell-based
Method: Mononuclear cells (MNC) were isolated from cord blood as previously described in Nilsson, S. K. et al Blood 106, 1232-1239, (2005) and Grassinger, J. et al. Blood 114, 49-59, (2009). MNCs were incubated with a lineage antibody cocktail containing mouse anti-human CD3, CD11b, CD14, CD16, CD20, CD24, and CD235a (BD) and then treated with two rounds of Dynal sheep anti-mouse IgG beads (Invitrogen, Carlsbad, Calif.) at a ratio of 2 beads per cell for 5 min and then 10 min at 4° C. with constant rotation. Enriched MNC were stained with CD34-fluorescein isothiocyanate (FITC) CD34^+ cells purified by FACS.
(§5) Cells were washed with cold PBS (2% F BS) and then immunolabelled as described in “Antibody Cocktails” prior to flow cytometric analysis.

[3] = system: central and endosteal BM LSK and LSKSLAM cells; assay: In vitro R-BC154 binding to murine bone marrow cells; assay type: cell-based, mouse
Method: For lineage analysis, cells were stained separately for T-cells using anti-CD3, B-cells using anti-B220, macrophages using anti-Mac-1 and granulocytes using anti-Gr-1. Alternatively, lineage analysis was also performed using a cocktail containing anti-CD3/B220 (PB conjugated) and anti-B220/Gr1/Mac-1 (AF647 conjugated), whereby B220^+ cells were identified as +/+ cells, CD^3+ cells are +/− and Gr1/Mac-1^+ cells are −/+ populations. For analysis of human WBC from cord blood MNCs or BM and PB from humanised NSG mice, cells were immunolabelled with a lineage cocktail containing anti-huCD3/CD14/CD15 (all AF488 conjugated), anti-CD14/CD15/CD19/CD20 (all AF647 conjugated), anti-huCD45-PB, anti-muCD45-BV510 and anti-huCD34-PECy7. A full list of conjugated antibodies used is detailed in Table 1 and 2.
Populations of endosteal and central murine bone marrow cells were isolated as previously described in J. Grassinger, et al Cytokine, 2012, 58, 218-225 and D. N. Haylock et al Stem Cells, 2007, 25, 1062-1069. Briefly, one femur, tibia and iliac bone were excised and cleaned of muscle. After removing the epi- and metaphyseal regions, bones were flushed with PBS-2% FBS to obtain central bone marrow cells. Flushed long bones and epi- and metaphyseal fragments were pooled and crushed using a mortar and pestle. Bone fragments were digested with Collagenase I (3 mg/ml) and Dispase II (4 mg/ml) at 37° C. in an orbital shaker at 750 rpm. After 5 min, bone fragments were washed once with PBS and once with PBS 2% FBS to collect the endosteal bone marrow cells. Peripheral blood was collected by retro-orbital puncture and red blood cells were lysed using NH4Cl lysis buffer for 5 min at room temperature. Isolated cell populations were washed with PBS 2% FBS and then stained for flow cytometry as described in Antibody Cocktails above.
as §5

human integrin α4β1 = target: T2, human integrin α4β1 (Homo sapiens, UniProt P05556+P13612); assay: Saturation binding to α4β1 over-expressing LN18 cells (flow cytometry); details: for Kd: α4β1 LN18 cells, read-out: Kd (dissociation constant), α4β1
T2 construct: expressed in transfected cells; host or cells: human glioblastoma LN18 (ATCC CRL-2610), retrovirally transduced
Method: as §1, §2

α4β1 integrin = target: T3, α4β1 integrin (Homo sapiens, UniProt P05556+P13612); assay: On-rate and off-rate kinetics of R-BC154 binding to α4β1 LN18 cells; details: for kobs / kon / koff: α4β1 cells; for kobs: 50 nM, 37° C., fast phase; for kon: (kobs − koff)/50 nM
T3 construct: expressed in transfected cells; host or cells: human glioblastoma LN18 (ATCC CRL-2610), retrovirally transduced
Method: as §3, §4

T2 sequence (P13612 34-1032): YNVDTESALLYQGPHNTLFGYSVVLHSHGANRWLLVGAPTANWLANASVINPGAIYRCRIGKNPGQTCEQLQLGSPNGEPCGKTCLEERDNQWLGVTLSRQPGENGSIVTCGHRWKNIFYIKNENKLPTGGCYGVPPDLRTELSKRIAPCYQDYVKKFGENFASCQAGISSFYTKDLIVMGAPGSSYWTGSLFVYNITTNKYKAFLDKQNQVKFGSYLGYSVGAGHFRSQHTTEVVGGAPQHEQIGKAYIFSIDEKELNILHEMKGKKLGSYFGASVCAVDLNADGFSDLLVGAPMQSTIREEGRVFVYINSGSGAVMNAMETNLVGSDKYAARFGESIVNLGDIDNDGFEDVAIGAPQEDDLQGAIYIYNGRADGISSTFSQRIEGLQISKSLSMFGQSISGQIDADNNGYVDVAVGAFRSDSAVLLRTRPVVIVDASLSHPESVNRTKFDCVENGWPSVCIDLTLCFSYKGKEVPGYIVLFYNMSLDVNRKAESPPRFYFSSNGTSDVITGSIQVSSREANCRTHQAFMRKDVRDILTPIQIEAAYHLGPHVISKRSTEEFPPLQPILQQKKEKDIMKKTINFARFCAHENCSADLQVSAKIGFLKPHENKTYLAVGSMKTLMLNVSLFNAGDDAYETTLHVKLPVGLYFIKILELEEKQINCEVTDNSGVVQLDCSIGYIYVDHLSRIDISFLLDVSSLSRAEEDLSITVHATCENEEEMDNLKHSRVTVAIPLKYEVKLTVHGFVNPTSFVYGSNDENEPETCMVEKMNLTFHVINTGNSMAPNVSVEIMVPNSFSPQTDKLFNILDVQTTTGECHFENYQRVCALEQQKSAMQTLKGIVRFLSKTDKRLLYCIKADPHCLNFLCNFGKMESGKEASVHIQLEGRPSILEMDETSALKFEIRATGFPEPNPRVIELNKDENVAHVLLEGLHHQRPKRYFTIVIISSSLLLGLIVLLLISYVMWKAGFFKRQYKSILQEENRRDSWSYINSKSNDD
T2 sequence (P05556 21-798): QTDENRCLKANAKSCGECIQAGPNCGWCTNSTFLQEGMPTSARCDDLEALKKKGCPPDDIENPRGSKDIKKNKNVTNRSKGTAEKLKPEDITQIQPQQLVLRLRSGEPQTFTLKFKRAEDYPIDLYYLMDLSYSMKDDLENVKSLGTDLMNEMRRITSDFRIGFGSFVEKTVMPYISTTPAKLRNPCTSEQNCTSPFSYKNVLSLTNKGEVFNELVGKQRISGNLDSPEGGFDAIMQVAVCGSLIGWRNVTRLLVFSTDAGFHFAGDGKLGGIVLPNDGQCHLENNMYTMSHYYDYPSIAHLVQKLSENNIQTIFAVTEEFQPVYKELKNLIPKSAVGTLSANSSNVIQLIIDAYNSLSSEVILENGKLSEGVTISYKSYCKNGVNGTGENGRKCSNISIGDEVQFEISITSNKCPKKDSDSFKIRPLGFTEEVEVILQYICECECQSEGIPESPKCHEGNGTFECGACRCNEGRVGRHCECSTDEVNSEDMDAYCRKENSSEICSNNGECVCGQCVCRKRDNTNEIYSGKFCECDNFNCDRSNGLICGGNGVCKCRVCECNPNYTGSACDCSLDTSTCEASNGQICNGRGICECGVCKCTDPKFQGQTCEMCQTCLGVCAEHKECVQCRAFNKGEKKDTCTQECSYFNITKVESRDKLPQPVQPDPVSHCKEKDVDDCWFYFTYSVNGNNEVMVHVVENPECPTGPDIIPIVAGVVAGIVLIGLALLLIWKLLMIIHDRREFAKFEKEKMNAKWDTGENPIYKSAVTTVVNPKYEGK
T3 sequence (P13612 34-1032): as the sequence (P13612 34-1032) above
T3 sequence (P05556 21-798): as the sequence (P05556 21-798) above
T1 sequence (Q13797 30-1035): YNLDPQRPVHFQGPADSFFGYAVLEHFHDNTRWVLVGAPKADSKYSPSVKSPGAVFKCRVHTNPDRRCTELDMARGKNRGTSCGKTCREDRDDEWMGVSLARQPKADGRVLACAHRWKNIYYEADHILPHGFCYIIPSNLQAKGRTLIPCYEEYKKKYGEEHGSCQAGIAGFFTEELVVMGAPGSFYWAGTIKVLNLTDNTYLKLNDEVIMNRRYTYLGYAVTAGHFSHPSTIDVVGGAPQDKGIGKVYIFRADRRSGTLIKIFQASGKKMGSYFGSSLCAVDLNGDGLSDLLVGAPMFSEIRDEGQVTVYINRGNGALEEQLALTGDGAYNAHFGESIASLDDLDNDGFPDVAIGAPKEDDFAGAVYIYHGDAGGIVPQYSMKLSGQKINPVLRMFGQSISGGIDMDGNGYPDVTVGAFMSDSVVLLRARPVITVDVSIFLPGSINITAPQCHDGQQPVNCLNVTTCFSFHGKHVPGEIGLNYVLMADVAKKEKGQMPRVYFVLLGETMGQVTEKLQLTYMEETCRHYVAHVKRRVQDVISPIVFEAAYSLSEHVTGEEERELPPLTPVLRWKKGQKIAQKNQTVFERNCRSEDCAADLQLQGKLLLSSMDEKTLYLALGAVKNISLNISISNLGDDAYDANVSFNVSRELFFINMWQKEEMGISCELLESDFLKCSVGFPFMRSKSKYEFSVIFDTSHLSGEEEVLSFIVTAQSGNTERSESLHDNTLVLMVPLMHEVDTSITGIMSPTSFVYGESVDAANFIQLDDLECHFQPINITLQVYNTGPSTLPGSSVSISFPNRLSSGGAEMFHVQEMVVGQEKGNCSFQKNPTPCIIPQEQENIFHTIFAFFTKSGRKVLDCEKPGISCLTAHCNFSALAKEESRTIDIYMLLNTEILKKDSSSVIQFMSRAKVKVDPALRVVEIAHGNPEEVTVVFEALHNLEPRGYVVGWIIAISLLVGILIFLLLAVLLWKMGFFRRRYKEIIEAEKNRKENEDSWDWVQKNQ
T1 sequence (P05556 21-798): as the sequence (P05556 21-798) above

SMILES: CCN(CC)c1ccc2c(-c3ccc(S(=O)(=O)NCc4cn(C5CC(C(=O)NC(Cc6ccc(OC(=O)N7CCCC7)cc6)C(=O)O)N(S(=O)(=O)c6ccccc6)C5)nn4)cc3S(=O)(=O)[O-])c3ccc(=[N+](CC)CC)cc-3oc2c1 (centres unmarked) [R-BC154]
- binding to control cell line lacking integrin expression [1]: Virtually no binding
- off-rates for α9β1 compared to α4β1 (α9β1 integrin; Example 2, FIG. 5c): significantly reduced off-rates
- R-BC154 still bound after 60 min (α9β1 integrin; α9β1, Mn2+, dissociation experiment): greater than 60%
- koff (α9β1 integrin; α9β1 cells, 1 mM Ca2+/Mg2+): 0.0009 s⁻¹
- kobs (α9β1 integrin; α9β1 cells, 1 mM Ca2+/Mg2+): 3.117 min⁻¹
- kon (α9β1 integrin; α9β1 cells, 1 mM Ca2+/Mg2+): 1.02e+06 M⁻¹ s⁻¹
- kobs (α9β1 integrin; α9β1 cells, 1 mM Mn2+): 2.035 min⁻¹
- kon (α9β1 integrin; α9β1 cells, 1 mM Mn2+): ~670000 M⁻¹ s⁻¹
- binding to human cord blood MNC ([2]; 1 mM Ca2+/Mg2+ vs no cations): Divalent cation and dose dependent binding
- binding to CD34+CD38− cells versus other MNC populations ([2]; activating conditions): greater binding was observed on stem cell enriched CD34^+CD38^− cells compared to lineage-committed CD34^− cells
- binding to central versus endosteal LSK and LSKSLAM ([3]; 1 mM Ca2+/Mg2+): greater binding to central LSK and LSKSLAM
- binding to HSC and progenitors on co-treatment with EDTA ([3]; 10 mM EDTA (deactivating)): completely abolished activity
- binding to α4−/−/α9−/− LSK and LSKSLAM cells ([3]; BM cells of α4flox/flox α9flox/flox vav-cre mice): essentially absent
- binding to lineage committed lymphoid and myeloid progeny relative to LSKSLAM and LSK ([3]; exogenous activation, central and endosteal BM): significantly lower
- binding to LSK cells in the absence of activating cations and EDTA ([3]; no cations, no EDTA): binding to endosteal LSK cells was still evident but not to central LSK
- Kd (human integrin α4β1; 1 mM Ca2+/Mg2+): 38 nM
- increase in binding affinity towards α4β1 under Mn2+ activation compared to Ca2+/Mg2+ (human integrin α4β1; 1 mM Mn2+ vs Ca2+/Mg2+): 3.1 fold
- Kd (human integrin α4β1; 1 mM Mn2+): 12.4 nM
- reduction in binding affinity to α4β1 compared to compound 22 (human integrin α4β1; Ca2+/Mg2+ conditions): 1.9 fold
- R-BC154 still bound after 60 min (α4β1 integrin; α4β1, Mn2+, dissociation experiment): greater than 60%
- kobs (α4β1 integrin; 1 mM Ca2+/Mg2+): 5.426 min⁻¹
- kon (α4β1 integrin; 1 mM Ca2+/Mg2+): 1.57e+06 M⁻¹ s⁻¹
- koff (α4β1 integrin; 1 mM Ca2+/Mg2+, fast phase of two-phase dissociation curve): 0.012 s⁻¹
- koff (α4β1 integrin; 1 mM Mn2+): 0.000233 s⁻¹
- kobs (α4β1 integrin; 1 mM Mn2+): 1.891 min⁻¹
- kon (α4β1 integrin; 1 mM Mn2+): 633000 M⁻¹ s⁻¹
